{"source": "patent US20210121482A1", "about": "“WITHANOLIDES FOR THE TREATMENT OF CACHEXIA” (University of Louisville Research Foundation, Inc., priority 2019, published 2021)", "key": {"[1]": {"tested_on": "heart (cardiomyocytes, collagen deposition)", "test": "Histology and morphometric heart analysis", "format": "in vivo, mice", "source_text": "The hearts were isolated, flash frozen in liquid nitrogen, mounted in O.C.T. embedding medium, and then sectioned using a microtome cryostat. To assess tissue morphology, 8 μm thick transverse sections were cut from the mid-ventricle of the heart. These sections were then subjected to H&E staining or Masson's trichrome staining. Images of H&E-stained and Masson's trichrome-stained heart sections were quantified using Fiji software (National Institutes of Health software) to measure myofiber cross-sectional area (CSA) or the degree of collagen deposition, respectively. Cardiac myofiber CSA was calculated by analyzing 100-200 fibers per heart. Collagen deposition was quantified from the Masson's trichrome-stained tissue."}, "[2]": {"tested_on": "TNFα, IFNγ, IL-6, IL-8, IL-18 in tumor samples", "test": "Human MAP multiplex assay of tumor samples", "format": "in vivo", "conditions": "vs vehicle treated group", "source_text": "Samples were minced on ice with sterilized scissors."}, "angiotensinogen (AGT)": {"tested_on": "angiotensinogen (AGT)", "test": "qPCR of angiotensinogen in tumor tissues", "format": "in vivo, Homo sapiens", "description": "Total RNA Extraction and qPCR: Isolation of total RNA from xenografted tumor samples was performed using an RNeasy® Mini Kit (Qiagen Catalog #74104) according to the manufacturer's instructions. Isolation of total RNA from skeletal muscle was performed using an RNeasy® Fibrous Tissue Mini Kit (Qiagen Catalog #74704) according to the manufacturer's instructions. First strand cDNA was synthesized using 1 μg of purified RNA and a commercially available kit (iScript™ cDNA synthesis, Bio-Rad Catalog #170-8891), Quantification of mRNA expression was performed similar to as previously described (Hindi and Kumar, 2016) using the SYBR Green dye method on a StepOnePlus™ system (Applied Biosystems) using gene-specific primers, as shown in Table 1.\nIsolation and preparation of total RNA was performed as described in Example 1."}, "A2780": {"tested_on": "A2780", "test": "Effect on ovarian cancer cell line A2780", "format": "cell-based", "conditions": "A2780 cells; through reactive oxygen species production and DNA damage"}, "[3]": {"tested_on": "ovarian cancer-induced cachexia", "test": "Grip strength, tumor-free and tumor-bearing mice (Example 2)", "format": "in vivo", "conditions": "terminal week", "description": "Grip Strength Measurements: Before assessment, mice were weighed on a commercially available digital scale. Forepaw and total grip strength of mice were measured using a digital grip strength meter (Columbus Instruments, Columbus, Ohio, USA) and then normalized by total body weight. Before the beginning of the test, the mice were acclimatized for five minutes. The mouse was allowed to grasp the total paw pull-bar assembly, and in a separate experiment the forepaw pull-bar assembly. The mouse was then gently drawn with constant force in a straight line away from the device until the mouse could no longer grasp the bar. Force at time of release was recorded as the peak tension. Each mouse was tested five times with a delay of 20-40 seconds between each testing. The mean peak tension was calculated from the recordings normalized by total body weight.\nGrip Strength Measurements: as in Example 1."}, "CAOV3": {"tested_on": "CAOV3", "conditions": "CAOV3 cells; cited from earlier work"}, "[4]": {"test": "Body composition by DEXA scan", "format": "in vivo, mice", "conditions": "2 and 6 mg/kg", "description": "Analysis of Body Composition: Body fat and lean mass composition, as well as the bone mineral content and density, excluding head region of interest (ROI), were determined by dual-energy X-ray absorptiometry (DEXA) scan using a mouse densitometer (PIXImus 2; Lunar, Madison, Wis., USA). According to the manufacturer's guidelines to calibrate and validate the performance of the apparatus, a “mouse phantom” provided with the machine was scanned before scanning the first mouse. Animals were […] immediately before assessment by DEXA scan. The mouse was then transferred to the disposable PIXImus measuring tray in the prone position with their head in a loosely fitting nose cone to aid positioning. Upon completion of the DEXA scan, approximately five minutes, the mouse was placed on ice to preserve tissue prior to collection."}, "[5]": {"tested_on": "A2780 ovarian cancer cells", "test": "Tumor burden: free peritoneal tumors and bilateral ovaries (Example 3)", "format": "in vivo, mice", "conditions": "tumor-bearing", "source_text": "Experimental tumors were induced as described in Example 2.\nNo significant difference in tumor weight between the two doses of WFA was observed (p=0.65).\nThe IP tumors were metastasized to select organs/anatomic regions known to be highly estrogen-responsive, including free-peritoneal tumors shown in FIG. 19D and bilateral ovaries shown in FIG. 19E."}, "Ang II": {"tested_on": "Ang II", "test": "Plasma Ang II ELISA", "format": "in vivo, mice", "conditions": "tumor-bearing", "description": "Plasma Ang II levels were measured with an enzyme-linked immunosorbent assay (ELISA). Blood samples were collected in tubes containing ethylenediaminetetraacetic acid (EDTA) (25 mM), o-phenanthroline (0.44 mM), pepstatin A (0.12 mM), and p-hydroxymercuribenzoic acid (1 mM) and then centrifuged at 1200×g for 10 min. The plasma was collected and stored at −80° C. until further processing. Ang II levels were quantified by using a commercially available ELISA kit according to the manufacturer's instructions (Sigma-Aldrich Catalog #MAK190)."}}, "data": [{"smiles": "CC1=C(CO)C(=O)O[C@@H]([C@@H](C)[C@H]2CC[C@H]3[C@@H]4C[C@H]5O[C@]56[C@@H](O)C=CC(=O)[C@]6(C)[C@H]4CC[C@]23C)C1", "note": "[WFA, (4β,5β,6β,22R)-4,27-Dihydroxy-5,6:22,26-diepoxyergosta-2,24-diene-1,26-dione]", "values": [{"measurement": "cross-sectional area (CSA) of cardiomyocytes", "setting": "[1]; tumor-bearing WFA-treated groups vs tumor-bearing vehicle", "result": "partial recovery of the CSA of cardiomyocytes"}, {"measurement": "reduction in heart weight (normalized by tibial length)", "setting": "[1]; tumor-bearing, both doses, vs tumor-bearing vehicle", "result": "significantly blunted"}, {"measurement": "percentage of connective tissue in heart", "setting": "[1]; tumor-bearing, either dose, vs tumor-bearing vehicle", "result": "significantly decreased"}, {"measurement": "collagen deposition / connective tissue in heart", "setting": "[1]; tumor-free WFA-treated groups vs tumor-free vehicle", "result": "comparable amount of connective tissue"}, {"measurement": "heart weight", "setting": "[1]; tumor-free animals", "result": "did not have any effect on heart weight in tumor-free animals"}, {"measurement": "cytokine levels of IL-18 in tumor (multiplex)", "setting": "[2]; 2 and 6 mg/kg", "result": "significant reduction in the cytokine levels of IL-18"}, {"measurement": "levels of TNFα, IFNγ, IL-6, IL-8 in tumor (multiplex)", "setting": "[2]; high dose (6 mg/kg)", "result": "mixed result of up- and downregulation of proinflammatory cytokines"}, {"measurement": "levels of TNFα, IFNγ, IL-6, IL-8 in tumor (multiplex)", "setting": "[2]; low dose (2 mg/kg)", "result": "significantly reduced the expression of all proinflammatory cytokines tested"}, {"measurement": "relative transcript levels of angiotensinogen in tumor samples", "setting": "angiotensinogen (AGT); WFA 2 mg/kg", "result": "0.3676±0.252", "unit": "fold change"}, {"measurement": "relative transcript levels of angiotensinogen in tumor samples", "setting": "angiotensinogen (AGT); WFA 4 mg/kg", "result": "0.0694±0.144", "unit": "fold change"}, {"measurement": "cell death", "setting": "A2780", "result": "autophagic cell death"}, {"measurement": "forelimb and total grip strengths", "setting": "[3]; tumor-bearing mice, 2 and 4 mg/kg, vs tumor-bearing vehicle", "result": "significantly increased compared to the tumor-bearing vehicle-treated"}, {"measurement": "total grip strength", "setting": "[3]; tumor-free mice, 4 mg/kg, vs tumor-free vehicle", "result": "significantly improved the total grip strength of the tumor-free mice"}, {"measurement": "forelimb grip strength", "setting": "[3]; tumor-free mice, 2 and 4 mg/kg, vs tumor-free vehicle", "result": "significantly improved the forelimb grip strength of tumor-free mice"}, {"measurement": "cell cycle arrest and apoptosis", "setting": "CAOV3", "result": "induces cell cycle arrest and the induction of apoptosis"}, {"measurement": "bone mineral density or content", "setting": "[4]", "result": "No significant differences"}, {"measurement": "proportion of lean tissue to body weight", "setting": "[4]; all tumor-bearing groups vs control", "result": "significant increase in the proportion of lean tissue to body weight"}, {"measurement": "proportion of adipose tissue to whole body weight", "setting": "[4]; vs vehicle treated group", "result": "attenuation of adipose tissue"}, {"measurement": "normalized weights of the bilateral ovaries", "setting": "[5]; WFA 2 mg/kg", "result": "10.38±1.32", "unit": "mg/g IBW"}, {"measurement": "weight of visible tumors", "setting": "[5]; WFA 2 mg/kg", "result": "1.6 ± 0.19", "unit": "g"}, {"measurement": "normalized weights of the bilateral ovaries", "setting": "[5]; WFA 4 mg/kg", "result": "12.05±2.09", "unit": "mg/g IBW"}, {"measurement": "weight of visible tumors", "setting": "[5]; WFA 4 mg/kg", "result": "1.9 ± 0.35", "unit": "g"}, {"measurement": "plasma Ang II levels", "setting": "Ang II; WFA 2 mg/kg", "result": "2.15 ± 0.015", "unit": "ng/mL"}, {"measurement": "plasma Ang II levels", "setting": "Ang II; WFA 4 mg/kg", "result": "2.07 ± 0.08", "unit": "ng/mL"}]}]}
